According to patent publication US9801373B2, “Compounds for alleviating phosphate starvation symptoms in plants” (Commissariat a l'Energie Atomique et aux Energies …, priority 2012, dated 2017):
Values joined by “and” are separate entries in the source; they are usually repeats but may differ in a detail not shown here. Equal entries are not always repeated.

What was measured:
Type in all cases: in vivo, Arabidopsis thaliana
[1] = tested on: genes regulated by Pi starvation; test: Global transcriptomic analysis (CATMA) of roots
Procedure: (§1) Plant RNA was extracted with the RNeasy kit (QIAGEN, France). For transcriptome data, RNA were analysed by the CATMA technology (Complete Arabidopsis Transcriptome Microarray). For qPCR, poly(dT) cDNA were prepared from 500 ng total RNA with Superscript III reverse transcriptase (Invitrogen, France) and analysed on a LightCycler 480 apparatus (Roche Diagnostics, France) with the SYBR Green I Master kit (Roche Diagnostics, France) according to the manufacturer's instructions. Targets were quantified with specific primer pairs designed with Primer3 website (http://frodo.wi.mit.edu/primer3/) (see Table II below). Biological triplicates were performed for all experiments. Expression levels were normalized using At2g16600, At3g04120, At1g35160 and At1g32050 genes.
To investigate on a wider scale the putative Phosphatin1 effect, a transcriptional analysis of the global genome was performed using the CATMA technology (http://www.catma.org/, URGV, France). It was compared transcript expression in roots of 14-days-old plantlets, grown in −Pi, −Pi+PTN1 or +Pi.
Table III: Comparison of PTN1 treatment and phosphate supply on global transcriptomic analysis. For this analysis, 14-days-old WT root samples of plants grown on −Pi, −Pi+PTN1 (40 μM) and +Pi were used. Data are expressed as ratio values between +Pi and −Pi or −Pi+PTN1 and −Pi respectively.

[2] = tested on: SQD2, MGD3, PLDz2, SQD1 and MGD2; test: qPCR of genes involved in lipid synthesis; conditions: 40 μM, 14 days, FIG. 5 (A)
Procedure: as §1

wild-type (WT) seedlings = test: Primary root growth of wild-type seedlings
Procedure: In the Pi deficient medium, NaCl (0.5 mM) was used to replace the equivalent amount of sodium provided by NaH2PO4. For controls of the effects of the compounds, 1% of DMSO (Dimethyl sulfoxid, SIGMA, 472301), solvent for the tested compounds, was added. After 2 days at 4° C., the plates were placed in a vertical position and plants were grown in a culture chamber under a 16 h light/8 h dark regime (24/21° C., 150 μE m^−2s^−1). For 4 weeks culture, large plates (24×24 cm) were placed in a horizontal position. Root architecture and aerial part area were quantified using program ImageJ.

[3] = tested on: PAP12, PAP17 and PAP22 genes; test: Expression of acid phosphatase (PAP) genes; conditions: −Pi
Procedure: as §1

[4] = tested on: PHT1;4, PHT1;8, MGD3, PLDz2, SQD2, SPX1; test: qPCR of Pi starvation regulated genes in lpr1 mutant; conditions: 14 days-old plants, FIG. 12
Procedure: as §1

cycB1::GUS = test: Cell cycle marker cycB1::GUS in root tip; conditions: 40 μM, −Pi seedlings, FIG. 7 (B)
Procedure: The GUS activity was detected as previously described by Jefferson et al. (1987), using a GUS staining solution containing 50 mM sodium phosphate buffer pH 7.0; 0.01% Triton X-100, 1 mM K3Fe(CN)6, 1 mM K4Fe(CN)6, 1 mg/ml 5-bromo-4-chloro-3-indolyl B-D-glucuronide (X-Gluc). For cycB1::GUS staining, plants were incubated 6 hours at 37° C.

PHT1;4 expression = test: Chemical genetics screen, GUS staining of pht1;4-1 reporter line; conditions: 25 μM, 5 days on −Pi
Source text: A “chemical genetics” approach has been carried out to isolate compounds that inhibit the phosphate (Pi) response in Arabidopsis thaliana. Compounds were screened for their ability to inhibit the expression of a phosphate starvation marker, namely the high affinity Pi transporter PHT1,4 gene. For the screening, the A. thaliana pht1;4-1 line (ecotype Wassilewskija) was chosen (Misson et al., 2004). It contains a T-DNA construct inserted into Pht1;4 gene creating a transcriptional fusion with a GUS reporter gene. For phenotypic analyses, A. thaliana Columbia and various lines derived from this ecotype were used. They are either transgenic lines expressing reporter gene as cycB1::GUS (Colón Carmona et al., 1999), MGD3::LUC, PHT1;4::LUC, At1g73010::LUC or various mutants affecting root response to low Pi such as: pdr2 (Ticconi et al., 2004), lpr1, lpr2 (Svistoonoff et al., 2007), lpi1, lpi2 and lpi3 (Sanchez-Calderon et al., 2006).
For the screening, the LATCA collection of 3600 biologically active compounds (Zhao et al., 2007) was used at a final concentration of 25 μM in 1% DMSO. Four to five Arabidopsis seeds of pht1;4-1 (Misson et al., 2004) reporter line were sown in 96-well plates containing 100 μL liquid MS/10 medium with 500 μM of Pi at pH 5.7. After 2 days at 4° C., plants were grown for five days in a culture chamber under a 16 h light/8 h dark regime (24/21° C., 150 μE m^−2s^−1). Medium was then replaced by MS/10 with only 5 μM Pi and the tested compounds were added to the 96-well plates. […] Five days later, plantlets were analysed by GUS staining to assay the activity of the reporter gene inserted in pht1;4 gene. […] Then, plates were analysed using a MZ16 stereomicroscope (Leica microsystems, Germany).
The GUS activity was detected as previously described by Jefferson et al. (1987), using a GUS staining solution containing 50 mM sodium phosphate buffer pH 7.0; 0.01% Triton X-100, 1 mM K3Fe(CN)6, 1 mM K4Fe(CN)6, 1 mg/ml 5-bromo-4-chloro-3-indolyl B-D-glucuronide (X-Gluc). […]

[5] = 14-days-old roots, −Pi+PTN1 40 μM vs −Pi
[6] = gene classes of Thibaud et al. (2010)

O=c1c(Sc2ccc(Cl)cc2)c(Sc2ccc(Cl)cc2)c1=O [PTN1]
genes de-regulated in an opposite way compared with +Pi treatment ([1]; 40 μM, 14-days-old roots): around 4%
number of the 279 genes induced +Pi/−Pi also induced by PTN1 ([1]; 40 μM, 14-days-old roots): 115 genes
number of the 279 genes induced +Pi/−Pi repressed by PTN1 ([1]; 40 μM, 14-days-old roots): 11 genes
number of the 783 genes repressed +Pi/−Pi also repressed by PTN1 ([1]; 40 μM, 14-days-old roots): 316 genes
number of the 783 genes repressed +Pi/−Pi induced by PTN1 ([1]; 40 μM, 14-days-old roots): 30 genes
percentage of the 279 genes induced +Pi/−Pi also induced by PTN1 ([1]; 40 μM, 14-days-old roots): 41% and 41.2%
percentage of the 279 genes induced +Pi/−Pi repressed by PTN1 ([1]; 40 μM, 14-days-old roots): 3.9%
percentage of the 783 genes repressed +Pi/−Pi also repressed by PTN1 ([1]; 40 μM, 14-days-old roots): 40% and 40.3%
percentage of the 783 genes repressed +Pi/−Pi induced by PTN1 ([1]; 40 μM, 14-days-old roots): 3.8%
number of genes induced vs −Pi [1, 5]: 1001 genes
number of genes repressed vs −Pi [1, 5]: 1666 genes
number of genes modulated vs −Pi ([1]; 14-days-old roots, −Pi+PTN1 40 μM vs −Pi, more than two fold change, Bonferroni <0.05): 2667 genes
local genes repressed by Pi also repressed by PTN1 [1, 6]: 45%
systemic genes induced by Pi also regulated by PTN1 in the same direction [1, 6]: 55%
systemic genes repressed by Pi also regulated by PTN1 in the same direction [1, 6]: 65%
expression of PHT1;5 and PHT1;8 ([1]; transcriptomic analysis): down regulation
expression of lipid conversion genes including PLDζ2 and MGD3 ([1]; transcriptomic analysis): down regulated
expression of SQD2, MGD3, PLDz2, SQD1 and MGD2 [2]: repressed the expression
primary root growth at various external Pi concentrations (15-250 uM) (wild-type (WT) seedlings; 10 uM, 5 days on Pi rich medium then 24 hours on tested conditions, FIG. 7 (D)): improved root growth until 50/75 μM of Pi
primary root growth on −Pi (wild-type (WT) seedlings; WT, 7-day-old plantlets, FIG. 7 (A)): promote the primary root growth in a dose dependent manner
concentration of maximum effect on primary root growth and PHT1;4 inhibition (wild-type (WT) seedlings; −Pi): 40 µM
expression level of PAP12, PAP17 and PAP22 genes [3]: reduced the expression level
expression of PHT1;4, PHT1;8, MGD3, PLDz2, SQD2, SPX1 in lpr1 [4]: repressed the expression of these genes in lpr1 to a similar level as observed in the WT
CycB1 expression in root tip (cycB1::GUS): expressed in the root tip of −Pi seedlings but there were fewer stained cells than in the +Pi control
toxicity as cause of reduced reporter gene expression (PHT1;4 expression): not explained by toxicity
